Results: PubChem BioAssay (NCI)
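These data come from cells grown in 96-well plates and exposed to compound for 48 hours at five concentrations. Definition used: TGI = concentration required for complete inhibition of growth.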

How the values were obtained:
Test in all cases: NCI-60 cell line screen, 48 h
HCC-2998 colon = system: HCC-2998 colon
UACC-257 melanoma = system: UACC-257 melanoma
SW-620 colon = system: SW-620 colon
SK-MEL-2 melanoma = system: SK-MEL-2 melanoma
786-0 renal = system: 786-0 renal
SF-539 CNS = system: SF-539 CNS
LOX IMVI melanoma = system: LOX IMVI melanoma
UACC-62 melanoma = system: UACC-62 melanoma
HCT-116 colon = system: HCT-116 colon
KM12 colon = system: KM12 colon
MDA-MB-435 = system: MDA-MB-435

| SMILES | TGI (HCC-2998 colon) | TGI (UACC-257 melanoma) | TGI (SW-620 colon) | TGI (SK-MEL-2 melanoma) | TGI (786-0 renal) | TGI (SF-539 CNS) | TGI (LOX IMVI melanoma) | TGI (UACC-62 melanoma) | TGI (HCT-116 colon) | TGI (KM12 colon) | TGI (MDA-MB-435) |
| --- | --- | --- | --- | --- | --- | --- | --- | --- | --- | --- | --- |
| COc1ccc(C[C@@H]2OC3(C=CC(=O)C=C3)O[C@H]2Cc2ccc(OC)cc2)cc1 | 2.95 µM | 3.28 µM | 0.383 µM | 3.41 µM | 0.412 µM | 2.63 µM | 0.377 µM | 3.7 µM | 0.33 µM | 5.04 µM | 3.5 µM |
| COc1ccccc1NS(=O)(=O)c1ccc2ncn(NS(=O)(=O)c3ccc(Cl)cc3)c(=O)c2c1 | > 100 µM | > 100 µM | > 100 µM | > 100 µM | > 100 µM | > 100 µM | > 100 µM | > 100 µM | > 100 µM | > 100 µM | > 100 µM |
| Cc1nc2c(=O)[nH]c3ccc(Cl)cc3c2o1 | > 100 µM | > 100 µM | > 100 µM | > 100 µM | > 100 µM | > 100 µM | > 100 µM | > 100 µM | > 100 µM | > 100 µM | > 100 µM |
| CCOP(=O)(OCC)C(Nc1ccc(F)cc1)c1ccccc1 (configuration not stated) | > 100 µM | > 100 µM | > 100 µM | > 100 µM | > 100 µM | > 100 µM | > 100 µM | > 100 µM | > 100 µM | > 100 µM | > 100 µM |
| COP(C)(=O)C(Cc1c[nH]c2ccccc12)NC(=O)OCc1ccccc1 (configuration not stated) | > 100 µM | > 100 µM | > 100 µM | > 100 µM | > 100 µM | > 100 µM | > 100 µM | > 100 µM | > 100 µM | > 100 µM | > 100 µM |
| CC(=O)OCC1OC(N2C(S)=C(C#N)C(c3ccco3)C(C(C)=O)=C2c2ccccc2)C(OC(C)=O)C(OC(C)=O)C1OC(C)=O (configuration not stated) | > 100 µM | > 100 µM | > 100 µM | > 100 µM | > 100 µM | > 100 µM | > 100 µM | > 100 µM | > 100 µM | > 100 µM | > 100 µM |
| CCCC1(N)CC(OC)OC(C)C1O (configuration not stated) | > 100 µM | > 100 µM | > 100 µM | > 100 µM | > 100 µM | > 100 µM | > 100 µM | > 100 µM | > 100 µM | > 100 µM | > 100 µM |
